According to the supplement of paper PMC10307832:

Tests used:
Experiment in all cases: relative viability (nuclei count vs DMSO), 5 days (fraction); higher = more cells survive
EMC-BAC-2 = tested on: EMC-BAC-2
Procedure, shortened: (§1)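 The day after seeding in 1536-well plates, lung cancer cell lines were treated by pin tool with a single drug, or with a fixed anchor-drug dose together with five library-drug doses (not always all listed) in √10 steps. After 5 days, a combined fix-and-stain solution (final 0.05% Triton X-100, 1% formaldehyde, 1 ug/ml Hoechst) was added. Nuclei counted on 4× images gave relative viability as treated counts over vehicle counts, reported as the median of duplicate plates.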

EPLC-272H = tested on: EPLC-272H
Procedure, shortened: as §1

HCC-78 = tested on: HCC-78
Procedure, shortened: as §1

LCLC-103H = tested on: LCLC-103H
Procedure, shortened: as §1

NCI-H1666 = tested on: NCI-H1666
Procedure, shortened: as §1

NCI-H1755 = tested on: NCI-H1755
Procedure, shortened: as §1

NCI-H1792 = tested on: NCI-H1792
Procedure, shortened: as §1

NCI-H1793 = tested on: NCI-H1793
Procedure, shortened: as §1

NCI-H1975 = tested on: NCI-H1975
Procedure, shortened: as §1

NCI-H2126 = tested on: NCI-H2126
Procedure, shortened: as §1

NCI-H2170 = tested on: NCI-H2170
Procedure, shortened: as §1

NCI-H2228 = tested on: NCI-H2228
Procedure, shortened: as §1

NCI-H2342 = tested on: NCI-H2342
Procedure, shortened: as §1

NCI-H441 = tested on: NCI-H441
Procedure, shortened: as §1

NCI-H520 = tested on: NCI-H520
Procedure, shortened: as §1

NCI-H838 = tested on: NCI-H838
Procedure, shortened: as §1

PC-3 [JPC-3] = tested on: PC-3 [JPC-3]
Procedure, shortened: as §1

SK-MES-1 = tested on: SK-MES-1
Procedure, shortened: as §1

SW 1573 = tested on: SW 1573
Procedure, shortened: as §1

Question: How did the relative viability (EMC-BAC-2; first compound 0.001 µM) turn out when Cc1cn(-c2cc(NC(=O)c3ccc(C)c(Nc4nccc(-c5cccnc5)n4)c3)cc(C(F)(F)F)c2)cn1 [Nilotinib] + Nc1nc2[nH]cc(CCc3ccc(C(=O)N[C@@H](CCC(=O)O)C(=O)O)cc3)c2c(=O)[nH]1 [Pemetrexed] (partner 0.2 µM) was run?
Answer: 0.427

Question: And the relative viability (EMC-BAC-2; first compound 0.003162 µM)?
Answer: 0.618

Question: What about the relative viability (EMC-BAC-2; first compound 0.01 µM) of the same compound?
Answer: 0.471

Question: And the relative viability (EMC-BAC-2; first compound 0.03162 µM)?
Answer: 0.46

Question: What about the relative viability (EMC-BAC-2; first compound 0.1 µM) of the same compound?
Answer: 0.437

Question: What about the relative viability (EPLC-272H; first compound 0.001 µM) of the same compound?
Answer: 0.239

Question: And the relative viability (EPLC-272H; first compound 0.003162 µM)?
Answer: 0.324

Question: What about the relative viability (EPLC-272H; first compound 0.01 µM) of the same compound?
Answer: 0.195

Question: What about the relative viability (EPLC-272H; first compound 0.03162 µM) of the same compound?
Answer: 0.309

Question: And the relative viability (EPLC-272H; first compound 0.1 µM)?
Answer: 0.171

Question: What about the relative viability (HCC-78; first compound 0.001 µM) of the same compound?
Answer: 0.897

Question: And the relative viability (HCC-78; first compound 0.003162 µM)?
Answer: 0.654

Question: What about the relative viability (HCC-78; first compound 0.01 µM) of the same compound?
Answer: 0.836

Question: And the relative viability (HCC-78; first compound 0.03162 µM)?
Answer: 0.8

Question: And the relative viability (HCC-78; first compound 0.1 µM)?
Answer: 0.935

Question: What about the relative viability (LCLC-103H; first compound 0.001 µM) of the same compound?
Answer: 0.447

Question: And the relative viability (LCLC-103H; first compound 0.003162 µM)?
Answer: 0.409

Question: What about the relative viability (LCLC-103H; first compound 0.01 µM) of the same compound?
Answer: 0.438

Question: And the relative viability (LCLC-103H; first compound 0.03162 µM)?
Answer: 0.467

Question: What about the relative viability (LCLC-103H; first compound 0.1 µM) of the same compound?
Answer: 0.351

Question: And the relative viability (NCI-H1666; first compound 0.001 µM)?
Answer: 0.768

Question: And the relative viability (NCI-H1666; first compound 0.003162 µM)?
Answer: 0.78

Question: And the relative viability (NCI-H1666; first compound 0.01 µM)?
Answer: 0.846

Question: What about the relative viability (NCI-H1666; first compound 0.03162 µM) of the same compound?
Answer: 0.717

Question: What about the relative viability (NCI-H1666; first compound 0.1 µM) of the same compound?
Answer: 0.9

Question: What about the relative viability (NCI-H1755; first compound 0.001 µM) of the same compound?
Answer: 0.41

Question: And the relative viability (NCI-H1755; first compound 0.003162 µM)?
Answer: 0.383

Question: What about the relative viability (NCI-H1755; first compound 0.01 µM) of the same compound?
Answer: 0.328

Question: What about the relative viability (NCI-H1755; first compound 0.03162 µM) of the same compound?
Answer: 0.306

Question: What about the relative viability (NCI-H1755; first compound 0.1 µM) of the same compound?
Answer: 0.361

Question: What about the relative viability (NCI-H1792; first compound 0.001 µM) of the same compound?
Answer: 0.623

Question: And the relative viability (NCI-H1792; first compound 0.003162 µM)?
Answer: 0.899

Question: What about the relative viability (NCI-H1792; first compound 0.01 µM) of the same compound?
Answer: 0.72

Question: What about the relative viability (NCI-H1792; first compound 0.03162 µM) of the same compound?
Answer: 0.525

Question: What about the relative viability (NCI-H1792; first compound 0.1 µM) of the same compound?
Answer: 0.709

Question: And the relative viability (NCI-H1793; first compound 0.001 µM)?
Answer: 0.996

Question: What about the relative viability (NCI-H1793; first compound 0.003162 µM) of the same compound?
Answer: 0.965

Question: What about the relative viability (NCI-H1793; first compound 0.01 µM) of the same compound?
Answer: 1.07

Question: And the relative viability (NCI-H1793; first compound 0.03162 µM)?
Answer: 0.903

Question: And the relative viability (NCI-H1793; first compound 0.1 µM)?
Answer: 0.359

Question: And the relative viability (NCI-H1975; first compound 0.001 µM)?
Answer: 0.294

Question: What about the relative viability (NCI-H1975; first compound 0.003162 µM) of the same compound?
Answer: 0.298

Question: And the relative viability (NCI-H1975; first compound 0.01 µM)?
Answer: 0.257

Question: What about the relative viability (NCI-H1975; first compound 0.03162 µM) of the same compound?
Answer: 0.211

Question: What about the relative viability (NCI-H1975; first compound 0.1 µM) of the same compound?
Answer: 0.235

Question: And the relative viability (NCI-H2126; first compound 0.001 µM)?
Answer: 0.68

Question: And the relative viability (NCI-H2126; first compound 0.003162 µM)?
Answer: 0.767

Question: What about the relative viability (NCI-H2126; first compound 0.01 µM) of the same compound?
Answer: 0.79

Question: And the relative viability (NCI-H2126; first compound 0.03162 µM)?
Answer: 0.656

Question: What about the relative viability (NCI-H2126; first compound 0.1 µM) of the same compound?
Answer: 0.47

Question: What about the relative viability (NCI-H2170; first compound 0.001 µM) of the same compound?
Answer: 0.265

Question: What about the relative viability (NCI-H2170; first compound 0.003162 µM) of the same compound?
Answer: 0.261

Question: And the relative viability (NCI-H2170; first compound 0.03162 µM)?
Answer: 0.252

Question: And the relative viability (NCI-H2170; first compound 0.1 µM)?
Answer: 0.315

Question: What about the relative viability (NCI-H2228; first compound 0.001 µM) of the same compound?
Answer: 0.358

Question: And the relative viability (NCI-H2228; first compound 0.003162 µM)?
Answer: 0.357

Question: And the relative viability (NCI-H2228; first compound 0.01 µM)?
Answer: 0.282

Question: And the relative viability (NCI-H2228; first compound 0.03162 µM)?
Answer: 0.216

Question: What about the relative viability (NCI-H2228; first compound 0.1 µM) of the same compound?
Answer: 0.165

Question: What about the relative viability (NCI-H2342; first compound 0.001 µM) of the same compound?
Answer: 0.718

Question: What about the relative viability (NCI-H2342; first compound 0.003162 µM) of the same compound?
Answer: 0.753

Question: What about the relative viability (NCI-H2342; first compound 0.01 µM) of the same compound?
Answer: 0.793

Question: And the relative viability (NCI-H2342; first compound 0.03162 µM)?
Answer: 0.718

Question: And the relative viability (NCI-H2342; first compound 0.1 µM)?
Answer: 0.428

Question: What about the relative viability (NCI-H441; first compound 0.001 µM) of the same compound?
Answer: 0.261

Question: What about the relative viability (NCI-H441; first compound 0.003162 µM) of the same compound?
Answer: 0.26

Question: What about the relative viability (NCI-H441; first compound 0.01 µM) of the same compound?
Answer: 0.225

Question: And the relative viability (NCI-H441; first compound 0.03162 µM)?
Answer: 0.229

Question: What about the relative viability (NCI-H441; first compound 0.1 µM) of the same compound?
Answer: 0.186

Question: And the relative viability (NCI-H520; first compound 0.001 µM)?
Answer: 0.591

Question: And the relative viability (NCI-H520; first compound 0.003162 µM)?
Answer: 0.674

Question: What about the relative viability (NCI-H520; first compound 0.01 µM) of the same compound?
Answer: 0.717

Question: What about the relative viability (NCI-H520; first compound 0.03162 µM) of the same compound?
Answer: 0.578

Question: And the relative viability (NCI-H520; first compound 0.1 µM)?
Answer: 0.556

Question: And the relative viability (NCI-H838; first compound 0.001 µM)?
Answer: 0.246

Question: And the relative viability (NCI-H838; first compound 0.003162 µM)?
Answer: 0.258

Question: And the relative viability (NCI-H838; first compound 0.01 µM)?
Answer: 0.261

Question: And the relative viability (NCI-H838; first compound 0.03162 µM)?
Answer: 0.252

Question: What about the relative viability (NCI-H838; first compound 0.1 µM) of the same compound?
Answer: 0.228

Question: And the relative viability (PC-3 [JPC-3]; first compound 0.001 µM)?
Answer: 1.02

Question: What about the relative viability (PC-3 [JPC-3]; first compound 0.01 µM) of the same compound?
Answer: 0.889

Question: And the relative viability (PC-3 [JPC-3]; first compound 0.03162 µM)?
Answer: 1.05

Question: And the relative viability (PC-3 [JPC-3]; first compound 0.1 µM)?
Answer: 0.599

Question: What about the relative viability (SK-MES-1; first compound 0.001 µM) of the same compound?
Answer: 0.958

Question: And the relative viability (SK-MES-1; first compound 0.003162 µM)?
Answer: 0.841

Question: What about the relative viability (SK-MES-1; first compound 0.01 µM) of the same compound?
Answer: 1.05

Question: What about the relative viability (SK-MES-1; first compound 0.03162 µM) of the same compound?
Answer: 0.868

Question: And the relative viability (SK-MES-1; first compound 0.1 µM)?
Answer: 0.503

Question: And the relative viability (SW 1573; first compound 0.001 µM)?
Answer: 0.801

Question: What about the relative viability (SW 1573; first compound 0.003162 µM) of the same compound?
Answer: 0.994

Question: What about the relative viability (SW 1573; first compound 0.01 µM) of the same compound?
Answer: 0.91

Question: And the relative viability (SW 1573; first compound 0.03162 µM)?
Answer: 0.541

Question: And the relative viability (SW 1573; first compound 0.1 µM)?
Answer: 0.171
